From patent US7527792B1, “Pharmaceutical composition comprising an anti-cancer and at least a peptide” (Synt : EM, priority 1998, dated 2009)
“And” between values parts separate entries of the source, which are not always exact repeats. Equal entries are not always repeated. Where two headings read alike, the source gives them in different places. Numbered stars: 1 amine (or outer) side, 2 acyl side, 3 side chain; on linkers, the order of the positions; unused ones are H or OH. Peptide text beside a SMILES is read from it. * marks the point of attachment. X1 = COc1cccc2c1C(=O)c1c(O)c3c(c(O)c1C2=O)C[C@@](O)(C(=O)CO)C[C@@H]3O[C@H]1C[C@H](NC(=O)CCN2C(=O)CC(*)C2=O)[C@H](O)[C@H](C)O1; Doxorubicin(3'-N) = COc1cccc2c1C(=O)c1c(O)c3c(c(O)c1C2=O)C[C@@](O)(C(=O)CO)C[C@@H]3O[C@H]1C[C@H](N*)[C@H](O)[C@H](C)O1; Suc = O=C(CCC(=O)[*:2])[*:1]

Assays:
Format in all cases: cell-based, human
[1] = system: resistant K562/ADR cells; assay: Cytotoxicity, MTT test, resistant line; settings: for F. Rev (reversion factor): K562/ADR, effect of the vector on susceptibility, free doxo versus compound; for F. Res (resistance factor): ratio of IC50 values, resistant line K562/ADR versus susceptible K562
Protocol: (§1) The susceptible K562 chronic myeloid leukaemia cells, resistant K562/ADR cells and HL60/R10 promyeloid leukaemia cells are of human origin and were obtained commercially from the ATCC. The cells are inoculated at a rate of approximately 10^4 cells per well, 24 hours before adding the products. The cells are kept in culture at 37° C. in an atmosphere at 95% humidity and 5% CO2 in an OptiMem medium.
[…] At the end of the culture period, MTT (3-(4,5-dimethylthiazole-2-yl)-2,5-diphenyltetrazolium bromide) is added into the wells and the culture plates are then incubated for 4 hours in the incubator. The resulting crystalline formazan deposit is then dissolved by adding 200 μl of DMF/SDS. The optical density (OD) is measured at 550 nm (reference 630 nm) using a microplate reader.
(§2) The graphic representation of the OD percentages of the wells treated as a function of the concentration of products is used to determine the IC50 which corresponds to the concentration of product that inhibits 50% of growth.
The IC50 values are used to quantify the resistance factor (F. Res) of the resistant lines using the following ratio:
The reversion factor (F. Rev) corresponds to the effect of a modulator (the vector) on the susceptibility of the cells to the anti-tumour agents according to the following ratio:
The susceptibility of the cells to anti-tumour agents was measured using the MTT test under the experimental conditions defined above wherein the relationship between the optical density and the number of viable cells is linear.

[2] = system: HL60/R10 promyeloid leukaemia cells; assay: Cytotoxicity, MTT test, HL60/R10
Protocol: as §1
The susceptible K562 cells and resistant K562/ADR cells are incubated either with free doxorubicin or with doxorubicin in a vector at increasing concentrations after 48 hours in culture in the presence of the products. At the end of the culture period, MTT (3-(4,5-dimethylthiazole-2-yl)-2,5-diphenyltetrazolium bromide) is added into the wells and the culture plates are then incubated for 4 hours in the incubator. The resulting crystalline formazan deposit is then dissolved by adding 200 μl of DMF/SDS. The optical density (OD) is measured at 550 nm (reference 630 nm) using a microplate reader.
as §2
The reversion factor (F. Rev) corresponds to the effect of a modulator (the vector) on the susceptibility of the cells to the anti-tumour agents according to the following ratio: […]

[3] = system: resistant K562/ADR cells; assay: Internalisation by flow cytometry; settings: 3 μM, 30 min incubation at 37° C.
Protocol: as §1
The susceptible K562 cells and resistant K562/ADR cells are incubated either with free doxorubicin or with doxorubicin in a vector at a concentration of 3 μM. After 30 minutes of incubation at 37° C., the cells are washed three times with PBS. The internalisation of the products is then analysed by flow cytometry. The samples are analysed with a flow cytometer equipped with a 15 mA argon laser. The fluorescence emitted is recorded on a logarithmic scale at (575 NM) nm after an excitation at (488) nm. The fluorescence is measured on 10,000 cells selected according to the […] parameters. The results are expressed as a percentage of positive cells of the fluorescence intensity logarithm. The results are analysed using the software program Cell Quest.
The susceptible K562 cells and resistant K562/ADR cells are incubated either with free doxorubicin or with doxorubicin in the vector. After 30 min of incubation, the internalisation of the products is measured by flow cytometry.

[4] = system: susceptible K562 chronic myeloid leukaemia cells; assay: Cytotoxicity, MTT test, susceptible line; settings: 8 μM, 24 hours incubation

SMILES | F. Rev (reversion factor) [1] | F. Res (resistance factor) [1] | other results
COc1cccc2c1C(=O)c1c(O)c3c(c(O)c1C2=O)C[C@@](O)(C(=O)CO)C[C@@H]3O[C@H]1C[C@H](NC(=O)CCC(=O)N[C@@H](CCCNC(=N)N)C(=O)NCC(=O)NCC(=O)N[C@@H](CCCNC(=N)N)C(=O)N[C@@H](CC(C)C)C(=O)N[C@@H](CO)C(=O)N[C@@H](Cc2ccc(O)cc2)C(=O)N[C@@H](CO)C(=O)N[C@@H](CCCNC(=N)N)C(=O)N[C@@H](CCCNC(=N)N)C(=O)N[C@@H](CCCNC(=N)N)C(=O)N[C@@H](Cc2ccccc2)C(=O)N[C@@H](CO)C(=O)N[C@H](C(=O)N[C@@H](CO)C(=O)N[C@H](C(=O)NCC(=O)N[C@@H](CCCNC(=N)N)C(=O)O)[C@@H](C)O)[C@@H](C)O)[C@H](O)[C@H](C)O1 [Compound 1, doxo-CO-(CH2)2-CO-RGGRLSYSRRRFSTSTGR] ({Doxorubicin(3'-N)-Suc}-RGGRLSYSRRRFSTSTGR-OH; N-terminus and C-terminus assumed) | 2.5 | 0.7 | –
COc1cccc2c1C(=O)c1c(O)c3c(c(O)c1C2=O)C[C@@](O)(C(=O)CO)C[C@@H]3O[C@H]1C[C@H](NC(=O)CCC(=O)N[C@@H](CCCNC(=N)N)C(=O)NCC(=O)NCC(=O)N[C@@H](CCCNC(=N)N)C(=O)N[C@@H](CC(C)C)C(=O)N[C@@H](CO)C(=O)N[C@@H](Cc2ccc(O)cc2)C(=O)N[C@@H](CO)C(=O)N[C@@H](CCCNC(=N)N)C(=O)N[C@@H](CCCNC(=N)N)C(=O)N[C@@H](CCCNC(=N)N)C(=O)N[C@@H](Cc2ccccc2)C(=O)N[C@@H](CO)C(=O)N[C@H](C(=O)N[C@@H](CO)C(=O)N[C@H](C(=O)NCC(=O)N[C@@H](CCCNC(=N)N)C(=O)O)C(C)C)C(C)C)[C@H](O)[C@H](C)O1 [Compound 2, doxo-CO-(CH2)2-CO-RGGRLSYSRRRFSVSVGR] ({Doxorubicin(3'-N)-Suc}-RGGRLSYSRRRFSVSVGR-OH; N-terminus and C-terminus assumed) | 5 | 0.9 | IC50 ([1]; FIG. 5 experiment, linked versus not linked with peptide, cell line not given, resistant cells implied, read-out: IC50): 19 µM; F. Rev ([2]; HL60/R10): 1.6
CC[C@H](C)[C@H](NC(=O)CNC(=O)[C@H](CCCNC(=N)N)NC(=O)[C@H](Cc1ccc(O)cc1)NC(=O)[C@H](CO)NC(=O)[C@@H](NC(=O)[C@H](CCCNC(=N)N)NC(=O)[C@H](Cc1ccccc1)NC(=O)[C@H](CO)NC(=O)[C@H](Cc1c[nH]c2ccccc12)NC(=O)[C@H](CCCCN)NC(=O)CCC(=O)N[C@H]1C[C@H](O[C@H]2C[C@](O)(C(=O)CO)Cc3c(O)c4c(c(O)c32)C(=O)c2c(OC)cccc2C4=O)O[C@@H](C)[C@H]1O)C(C)C)C(=O)N[C@@H](CO)C(=O)N[C@@H](Cc1ccc(O)cc1)C(=O)N[C@@H](CCCNC(=N)N)C(=O)N[C@@H](CCCNC(=N)N)C(=O)N[C@@H](CO)C(=O)N[C@@H](CCCNC(=N)N)C(=O)O [Compound 3, doxo-CO-(CH2)2-CO-KWSFRVSYRGISYRRSR] ({Doxorubicin(3'-N)-Suc}-KWSFRVSYRGISYRRSR-OH; N-terminus and C-terminus assumed) | 43 | 0.8 | –
COc1cccc2c1C(=O)c1c(O)c3c(c(O)c1C2=O)C[C@@](O)(C(=O)CO)C[C@@H]3O[C@H]1C[C@H](NC(=O)CCC(=O)N[C@@H](CCCNC(=N)N)C(=O)N[C@@H](CCCNC(=N)N)C(=O)N[C@@H](CC(C)C)C(=O)N[C@@H](CO)C(=O)N[C@@H](Cc2ccc(O)cc2)C(=O)N[C@@H](CO)C(=O)N[C@@H](CCCNC(=N)N)C(=O)N[C@@H](CCCNC(=N)N)C(=O)N[C@@H](CCCNC(=N)N)C(=O)N[C@@H](Cc2ccccc2)C(=O)O)[C@H](O)[C@H](C)O1 [Compound 4, doxo-CO-(CH2)2-CO-RRLSYSRRRF] ({Doxorubicin(3'-N)-Suc}-RRLSYSRRRF-OH; N-terminus and C-terminus assumed) | 2.8 | 1 | –
CC[C@@H](C)[C@@H](NC(=O)[C@@H](CCCCN)NC(=O)[C@H](NC(=O)[C@@H](CCC(N)=O)NC(=O)[C@@H](CCCNC(=N)N)NC(=O)CCSC1CC(=O)N(CCC(=O)N[C@H]2C[C@H](O[C@H]3C[C@](O)(C(=O)CO)Cc4c(O)c5c(c(O)c43)C(=O)c3c(OC)cccc3C5=O)O[C@@H](C)[C@H]2O)C1=O)[C@H](C)CC)C(=O)N[C@H](Cc1c[nH]c2ccccc12)C(=O)N[C@H](Cc1ccccc1)C(=O)N[C@H](CCC(N)=O)C(=O)N[C@H](CC(N)=O)C(=O)N[C@H](CCCNC(=N)N)C(=O)N[C@H](CCCNC(=N)N)C(=O)N[C@H](CCSC)C(=O)N[C@H](CCCCN)C(=O)N[C@H](Cc1c[nH]c2ccccc12)C(=O)N[C@H](CCCCN)C(=O)N[C@H](CCCCN)C(=O)O (some centres unmarked) [Compound 5, doxo-SMP-3MP-rqikiwfgnrrmkwkk] | 35 | 1.3 | IC50 ([1]; resistant line K562/ADR, MTT, 50% growth inhibition, read-out: IC50 K562/ADR): 2 µM; percentage of positive cells (internalisation) [3]: 98%
CC[C@H](C)[C@H](NC(=O)[C@H](CCCCN)NC(=O)[C@@H](NC(=O)[C@H](CC(N)=O)NC(=O)[C@H](CCC(=O)O)NC(=O)[C@@H](N)CSC1CC(=O)N(CCC(=O)N[C@H]2C[C@H](O[C@H]3C[C@](O)(C(=O)CO)Cc4c(O)c5c(c(O)c43)C(=O)c3c(OC)cccc3C5=O)O[C@@H](C)[C@H]2O)C1=O)[C@@H](C)CC)C(=O)N[C@@H](Cc1c[nH]c2ccccc12)C(=O)N[C@@H](CC(C)C)C(=O)N[C@@H](CO)C(=O)N[C@@H](CC(C)C)C(=O)N[C@@H](CCCNC(=N)N)C(=O)N[C@@H](CO)C(=O)N[C@@H](Cc1ccc(O)cc1)C(=O)N[C@@H](CC(C)C)C(=O)N[C@@H](CCCCN)C(=O)N[C@@H](CCCNC(=N)N)C(=O)N[C@@H](CCCNC(=N)N)C(=O)O (some centres unmarked) [Compound 6, doxo-SMP-CENIKIWLSLRSYLKRR] (H-C(X1)ENIKIWLSLRSYLKRR-OH; N-terminus and C-terminus assumed) | 12.8 | 1.1 | –
COc1cccc2c1C(=O)c1c(O)c3c(c(O)c1C2=O)C[C@@](O)(C(=O)CO)C[C@@H]3O[C@H]1C[C@H](NC(=O)CCC(=O)N[C@@H](CCCNC(=N)N)C(=O)NCC(=O)NCC(=O)N[C@@H](CCCNC(=N)N)C(=O)N[C@@H](CC(C)C)C(=O)N[C@@H](C)C(=O)N[C@@H](Cc2ccc(O)cc2)C(=O)N[C@@H](CC(C)C)C(=O)N[C@@H](CCCNC(=N)N)C(=O)N[C@@H](CCCNC(=N)N)C(=O)N[C@@H](CCCNC(=N)N)C(=O)N[C@@H](Cc2c[nH]c3ccccc23)C(=O)N[C@@H](C)C(=O)N[C@H](C(=O)N[C@@H](CC(C)C)C(=O)N[C@H](C(=O)NCC(=O)N[C@@H](CCCNC(=N)N)C(=O)O)C(C)C)C(C)C)[C@H](O)[C@H](C)O1 [Compound 7, doxo-CO-(CH2)2-CO-RGGRLAYLRRRWAVLVGR] ({Doxorubicin(3'-N)-Suc}-RGGRLAYLRRRWAVLVGR-OH; N-terminus and C-terminus assumed) | >26 | 0.85 | –
COc1cccc2c1C(=O)c1c(O)c3c(c(O)c1C2=O)C[C@@](O)(C(=O)CO)C[C@@H]3O[C@H]1C[C@H](N)[C@H](O)[C@H](C)O1 [Free Doxo, doxorubicin, reference compound] | – | – | survival of the cells ([1]; K562/ADR resistant cells, 8 μM, 24 hours incubation, MTT): 100%; IC50 ([1]; resistant line K562/ADR, MTT, 50% growth inhibition, listed as free doxorubicin, read-out: IC50 K562/ADR): 70 µM; IC50 ([2]; Homo sapiens, HL-60, HL60/R10 doxorubicin-resistant cells, MTT): 40 µM; percentage of positive cells (internalisation) ([3]; listed as free doxorubicin): 5.86% and 5.68%; survival of the cells [4]: 15%
